From patent US5545618A, “GLP-1 analogs useful for diabetes treatment” (priority 1993, dated 1996)
Like-named read-outs stand apart in the source and are kept apart here.

Experiments:
[1] = degradation in plasma by RP-HPLC; assay type: in vitro ADME; settings: incubation in plasma for 60 minutes; note: key: +: degradation was not observed; -: was complete after this time
Procedure: In this assay, the analog is added to plasma for various times and recovered similarly to the method described above for radiolabel sequencing analysis. Specifically, the analog at a concentration of 100 nM in RIA buffer is spiked into 1 mL plasma to a final concentration of 1 nM and after incubation in 37° C. circulating water bath for various preset times, the reaction is stopped by bringing the plasma to 0.1% (w/v) in bacitracin.
The peptides are then purified by Sep-Pak extraction as described above. The eluates are concentrated to about 1 mL on a Speed-vac, diluted with 1 mL distilled water, frozen at 80° C. and lyophilized overnight. The powder is resuspended in 0.5 mL Buffer C (0.1% TFA in water) per mL starting plasma and 0.25 mL are injected on a Hewlett-Packard 109OL liquid chromatograph using an Alltech C18 column (0.45×25 cm; 10 μm particle size) with a Brownlee 2 cm C18 guard column. The extraction is monitored at OD214 throughout the run and the solvent flow rate was 1 mL/minute. A gradient between Buffer C and Buffer D (0.1% TFA in acetonitrile) is set up over a 40 minute run time. The gradient starts at 35% D is held for the first 2 minutes after injection and then increased to 42% D over 24 minutes. The gradient is then increased to 60% D over the next two minutes, held at this level for 2 minutes and returned to 35% D over the next 2 minutes. The % D remains at 35% for the remaining 8 minutes of the run. Fractions are collected at 0.5 minute intervals for the first 30 minutes of each run and dried in a Speed-vac.

[2] = tested on: RIN 1046-38 cells
Procedure: An additional test for potency of the compounds of the invention measures their ability to stimulate cAMP production in RIN 1046-38 cells. This assay can be conducted as follows:
On day 1, 5×10^5 RIN 1046-38 cells (Drucker, D. J., et al., Proc Natl Acad Sci USA (1987) 84:3434-3438) are seeded into individual wells of 6-well dishes with 2.5 mL M199 culture medium. On day 4, cells are re-fed with fresh medium and on day 5 the assay is performed. […] Assays are only performed on cell passage ≤24.
At time -60 min, monolayers are washed twice with 2.5 mL PBS, and medium is changed to 1.0 mL of DMEM medium plus 4.5 g/l glucose and 0.1% BSA (assay medium). At 0 time, medium is aspirated and fresh assay medium, 1.0 mL, containing test compound is added. Test compound is added in 50 ul volume of PBS plus 0.1% BSA; controls are added in vehicle alone. Incubation is continued for 0 to 60 min.
At termination, conditioned medium and monolayer are harvested to measure both extra- and intracellular cAMP content. For extracellular measurement, medium is removed and centrifuged to remove any cellular debris. For intracellular determination, after medium removal, 1.0 mL of ice cold 95% ethanol is added to monolayer. Cells are collected by scraping, lysed by two cycles of quick freeze/thawing using liquid N2, and cell debris then removed by centrifugation. Aliquots (1/40th well content) of conditioned medium and ethanol cell extract are measured in duplicate for cAMP levels using an RIA kit by the acetylated protocol.
Insulin secretion can also be measured by the method described by Holst, J. J., et al. FEBS Letters (1987) 211:169-174 (supra). Also useful as an assay for insulinotropic effect is the measurement of stimulation of adenylate cyclase in the RIN 1046-38 cell line. Drucker, D. J. et al., Proc Natl Acad Sci USA (1987) 84:3434-3438 (supra).

| Compound | Resistance to Degradation [1] | ED50 nM Duplicate Assays (first value) [2] [nM] | ED50 nM Duplicate Assays (second value) [2] [nM] | also measured |
| --- | --- | --- | --- | --- |
| CC[C@H](C)[C@H](NC(=O)[C@H](Cc1ccccc1)NC(=O)[C@H](CCC(=O)O)NC(=O)[C@H](CCCCN)NC(=O)[C@H](C)NC(=O)[C@H](C)NC(=O)[C@H](CCC(N)=O)NC(=O)CNC(=O)[C@H](CCC(=O)O)NC(=O)[C@H](CC(C)C)NC(=O)[C@H](Cc1ccc(O)cc1)NC(=O)[C@H](CO)NC(=O)[C@H](CO)NC(=O)[C@@H](NC(=O)[C@H](CC(=O)O)NC(=O)[C@H](CO)NC(=O)[C@@H](NC(=O)[C@H](Cc1ccccc1)NC(=O)[C@@H](NC(=O)CNC(=O)[C@H](CCC(=O)O)NC(=O)[C@H](C)NC(=O)[C@@H](N)CCCCN)[C@@H](C)O)[C@@H](C)O)C(C)C)C(=O)N[C@@H](C)C(=O)N[C@@H](Cc1c[nH]c2ccccc12)C(=O)N[C@@H](CC(C)C)C(=O)N[C@H](C(=O)N[C@@H](CCCCN)C(=O)NCC(=O)N[C@@H](CCCNC(=N)N)C(=O)NCC(=O)O)C(C)C [(K)^7 -GLP-1(7-37)] | - |  |  |  |
| CC[C@H](C)[C@H](NC(=O)[C@H](Cc1ccccc1)NC(=O)[C@H](CCC(=O)O)NC(=O)[C@H](CCCCN)NC(=O)[C@H](C)NC(=O)[C@H](C)NC(=O)[C@H](CCC(N)=O)NC(=O)CNC(=O)[C@H](CCC(=O)O)NC(=O)[C@H](CC(C)C)NC(=O)[C@H](Cc1ccc(O)cc1)NC(=O)[C@H](CO)NC(=O)[C@H](CO)NC(=O)[C@@H](NC(=O)[C@H](CC(=O)O)NC(=O)[C@H](CO)NC(=O)[C@@H](NC(=O)[C@H](Cc1ccccc1)NC(=O)[C@@H](NC(=O)CNC(=O)[C@H](CCC(=O)O)NC(=O)[C@H](C)NC(=O)[C@H](Cc1c[nH]cn1)NC(C)=O)[C@@H](C)O)[C@@H](C)O)C(C)C)C(=O)N[C@@H](C)C(=O)N[C@@H](Cc1c[nH]c2ccccc12)C(=O)N[C@@H](CC(C)C)C(=O)N[C@H](C(=O)N[C@@H](CCCCN)C(=O)NCC(=O)N[C@@H](CCCNC(=N)N)C(=O)NCC(=O)O)C(C)C [(N-acetyl-H)^7 -GLP-1(7-37)] | + |  |  |  |
| CC[C@H](C)[C@H](NC(=O)[C@H](Cc1ccccc1)NC(=O)[C@H](CCC(=O)O)NC(=O)[C@H](CCCCN)NC(=O)[C@H](C)NC(=O)[C@H](C)NC(=O)[C@H](CCC(N)=O)NC(=O)CNC(=O)[C@H](CCC(=O)O)NC(=O)[C@H](CC(C)C)NC(=O)[C@H](Cc1ccc(O)cc1)NC(=O)[C@H](CO)NC(=O)[C@H](CO)NC(=O)[C@@H](NC(=O)[C@H](CC(=O)O)NC(=O)[C@H](CO)NC(=O)[C@@H](NC(=O)[C@H](Cc1ccccc1)NC(=O)[C@@H](NC(=O)CNC(=O)[C@H](CCC(=O)O)NC(=O)[C@H](C)NC(=O)[C@H](CCCCN)NC(C)=O)[C@@H](C)O)[C@@H](C)O)C(C)C)C(=O)N[C@@H](C)C(=O)N[C@@H](Cc1c[nH]c2ccccc12)C(=O)N[C@@H](CC(C)C)C(=O)N[C@H](C(=O)N[C@@H](CCCCN)C(=O)NCC(=O)N[C@@H](CCCNC(=N)N)C(=O)NCC(=O)O)C(C)C [(N-acetyl-K)^7 GLP-1 (7-37)] | + |  |  |  |
| CC[C@H](C)[C@H](NC(=O)[C@H](Cc1ccccc1)NC(=O)[C@H](CCC(=O)O)NC(=O)[C@H](CCCCN)NC(=O)[C@H](C)NC(=O)[C@H](C)NC(=O)[C@H](CCC(N)=O)NC(=O)CNC(=O)[C@H](CCC(=O)O)NC(=O)[C@H](CC(C)C)NC(=O)[C@H](Cc1ccc(O)cc1)NC(=O)[C@H](CO)NC(=O)[C@H](CO)NC(=O)[C@@H](NC(=O)[C@H](CC(=O)O)NC(=O)[C@H](CO)NC(=O)[C@@H](NC(=O)[C@H](Cc1ccccc1)NC(=O)[C@@H](NC(=O)CNC(=O)[C@H](CCC(=O)O)NC(=O)[C@H](C)NC(=O)[C@H](Cc1c[nH]cn1)NC(C)C)[C@@H](C)O)[C@@H](C)O)C(C)C)C(=O)N[C@@H](C)C(=O)N[C@@H](Cc1c[nH]c2ccccc12)C(=O)N[C@@H](CC(C)C)C(=O)N[C@H](C(=O)N[C@@H](CCCCN)C(=O)NCC(=O)N[C@@H](CCCNC(=N)N)C(=O)NCC(=O)O)C(C)C [(N-isopropyl-H)^7 GLP-1(7-37), (N-isopropyl-H)^7 -GLP-1(7-37)] | + |  |  |  |
| CC[C@H](C)[C@H](NC(=O)[C@H](Cc1ccccc1)NC(=O)[C@H](CCC(=O)O)NC(=O)[C@H](CCCCN)NC(=O)[C@H](C)NC(=O)[C@H](C)NC(=O)[C@H](CCC(N)=O)NC(=O)CNC(=O)[C@H](CCC(=O)O)NC(=O)[C@H](CC(C)C)NC(=O)[C@H](Cc1ccc(O)cc1)NC(=O)[C@H](CO)NC(=O)[C@H](CO)NC(=O)[C@@H](NC(=O)[C@H](CC(=O)O)NC(=O)[C@H](CO)NC(=O)[C@@H](NC(=O)[C@H](Cc1ccccc1)NC(=O)[C@@H](NC(=O)CNC(=O)[C@H](CCC(=O)O)NC(=O)[C@H](C)NC(=O)[C@H](Cc1c[nH]cn1)NC(=O)[C@H](CCCNC(=N)N)NC(=O)[C@H](CCC(=O)O)NC(=O)[C@H](Cc1ccccc1)NC(=O)[C@H](CCC(=O)O)NC(=O)[C@H](CC(=O)O)NC(=O)[C@@H](N)Cc1c[nH]cn1)[C@@H](C)O)[C@@H](C)O)C(C)C)C(=O)N[C@@H](C)C(=O)N[C@@H](Cc1c[nH]c2ccccc12)C(=O)N[C@@H](CC(C)C)C(=O)N[C@H](C(=O)N[C@@H](CCCCN)C(=O)NCC(=O)N[C@@H](CCCNC(=N)N)C(=O)NCC(=O)O)C(C)C [GLP-1(1-37)] |  | > 1000 | 2900 |  |
| CC[C@H](C)[C@H](NC(=O)[C@H](Cc1ccccc1)NC(=O)[C@H](CCC(=O)O)NC(=O)[C@H](CCCCN)NC(=O)[C@H](C)NC(=O)[C@H](C)NC(=O)[C@H](CCC(N)=O)NC(=O)CNC(=O)[C@H](CCC(=O)O)NC(=O)[C@H](CC(C)C)NC(=O)[C@H](Cc1ccc(O)cc1)NC(=O)[C@H](CO)NC(=O)[C@H](CO)NC(=O)[C@@H](NC(=O)[C@H](CC(=O)O)NC(=O)[C@H](CO)NC(=O)[C@@H](NC(=O)[C@H](Cc1ccccc1)NC(=O)[C@@H](NC(=O)CNC(=O)[C@H](CCC(=O)O)NC(=O)[C@H](C)NC(=O)[C@H](Cc1c[nH]cn1)NC(=O)[C@H](CCCNC(=N)N)NC(=O)[C@H](CCC(=O)O)NC(=O)[C@H](Cc1ccccc1)NC(=O)[C@@H](N)CCC(=O)O)[C@@H](C)O)[C@@H](C)O)C(C)C)C(=O)N[C@@H](C)C(=O)N[C@@H](Cc1c[nH]c2ccccc12)C(=O)N[C@@H](CC(C)C)C(=O)N[C@H](C(=O)N[C@@H](CCCCN)C(=O)NCC(=O)N[C@@H](CCCNC(=N)N)C(=O)NCC(=O)O)C(C)C [GLP-1(3-37)] |  | 70 | 81 |  |
| CC[C@H](C)[C@H](NC(=O)[C@H](Cc1ccccc1)NC(=O)[C@H](CCC(=O)O)NC(=O)[C@H](CCCCN)NC(=O)[C@H](C)NC(=O)[C@H](C)NC(=O)[C@H](CCC(N)=O)NC(=O)CNC(=O)[C@H](CCC(=O)O)NC(=O)[C@H](CC(C)C)NC(=O)[C@H](Cc1ccc(O)cc1)NC(=O)[C@H](CO)NC(=O)[C@H](CO)NC(=O)[C@@H](NC(=O)[C@H](CC(=O)O)NC(=O)[C@H](CO)NC(=O)[C@@H](NC(=O)[C@H](Cc1ccccc1)NC(=O)[C@@H](NC(=O)CNC(=O)[C@H](CCC(=O)O)NC(=O)[C@H](C)NC(=O)[C@H](Cc1c[nH]cn1)NC(=O)[C@H](CCCNC(=N)N)NC(=O)[C@H](CCC(=O)O)NC(=O)[C@@H](N)Cc1ccccc1)[C@@H](C)O)[C@@H](C)O)C(C)C)C(=O)N[C@@H](C)C(=O)N[C@@H](Cc1c[nH]c2ccccc12)C(=O)N[C@@H](CC(C)C)C(=O)N[C@H](C(=O)N[C@@H](CCCCN)C(=O)NCC(=O)N[C@@H](CCCNC(=N)N)C(=O)NCC(=O)O)C(C)C [GLP-1(4-37)] |  | 130 | 200 |  |
| CC[C@H](C)[C@H](NC(=O)[C@H](Cc1ccccc1)NC(=O)[C@H](CCC(=O)O)NC(=O)[C@H](CCCCN)NC(=O)[C@H](C)NC(=O)[C@H](C)NC(=O)[C@H](CCC(N)=O)NC(=O)CNC(=O)[C@H](CCC(=O)O)NC(=O)[C@H](CC(C)C)NC(=O)[C@H](Cc1ccc(O)cc1)NC(=O)[C@H](CO)NC(=O)[C@H](CO)NC(=O)[C@@H](NC(=O)[C@H](CC(=O)O)NC(=O)[C@H](CO)NC(=O)[C@@H](NC(=O)[C@H](Cc1ccccc1)NC(=O)[C@@H](NC(=O)CNC(=O)[C@H](CCC(=O)O)NC(=O)[C@H](C)NC(=O)[C@H](Cc1c[nH]cn1)NC(=O)[C@H](CCCNC(=N)N)NC(=O)[C@@H](N)CCC(=O)O)[C@@H](C)O)[C@@H](C)O)C(C)C)C(=O)N[C@@H](C)C(=O)N[C@@H](Cc1c[nH]c2ccccc12)C(=O)N[C@@H](CC(C)C)C(=O)N[C@H](C(=O)N[C@@H](CCCCN)C(=O)NCC(=O)N[C@@H](CCCNC(=N)N)C(=O)NCC(=O)O)C(C)C [GLP-1(5-37)] |  | 150 |  |  |
| gastric inhibitory peptide [GIP] |  |  |  | ED50 nM Duplicate Assays (first value) ([2]; cAMP stimulation in RIN 1046-38 cells, first of duplicate assays): 10.0 nM; ED50 nM Duplicate Assays (second value) ([2]; cAMP stimulation in RIN 1046-38 cells, second of duplicate assays): 37.5 nM |
